Where two headings read alike, the source gives them in different places.
Legend:
human TLR9 = human TLR9 (Homo sapiens (Human), UniProt Q9NR96); assay: TLR9 inhibition reporter assay (HEK-Blue cells, SEAP reporter, ODN2006 stimulation);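 note: compounds tested over 0.05 nM to 50 µM, 22 h incubation, inhibition taken as SEAP signal drop from agonist plus DMSO wells toward a known inhibitor control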
human TLR7 = human TLR7 (Homo sapiens (Human), UniProt Q9NYK1); assay: TLR7 inhibition reporter assay (HEK-Blue cells, SEAP reporter, gardiquimod stimulation); format: cell-based; conditions: HEK-Blue cells overexpressing human TLR7, gardiquimod 7.5 μM
human TLR8 = human TLR8 (Homo sapiens (Human), UniProt Q9NR97); assay: TLR8 inhibition reporter assay (HEK-Blue cells, SEAP reporter, R848 stimulation);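 note: compounds tested from 0.05 nM to 50 µM, 22 h at 37 °C, SEAP measured with HEK-Blue Detection, inhibition relative to agonist plus DMSO versus a known inhibitor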
[1] = read-out: TLR9 IC50, HEK-Blue cells overexpressing human TLR9, ODN2006 5 nM
[2] = read-out: TLR8 IC50, HEK-Blue cells overexpressing human TLR8, R848 15.9 μM
[3] = TLR9 IC50, HEK-Blue cells overexpressing human TLR9, ODN2006 5 nM
[4] = TLR8 IC50, HEK-Blue cells overexpressing human TLR8, R848 15.9 μM

Sequence of human TLR7 (Q9NYK1 27-1049): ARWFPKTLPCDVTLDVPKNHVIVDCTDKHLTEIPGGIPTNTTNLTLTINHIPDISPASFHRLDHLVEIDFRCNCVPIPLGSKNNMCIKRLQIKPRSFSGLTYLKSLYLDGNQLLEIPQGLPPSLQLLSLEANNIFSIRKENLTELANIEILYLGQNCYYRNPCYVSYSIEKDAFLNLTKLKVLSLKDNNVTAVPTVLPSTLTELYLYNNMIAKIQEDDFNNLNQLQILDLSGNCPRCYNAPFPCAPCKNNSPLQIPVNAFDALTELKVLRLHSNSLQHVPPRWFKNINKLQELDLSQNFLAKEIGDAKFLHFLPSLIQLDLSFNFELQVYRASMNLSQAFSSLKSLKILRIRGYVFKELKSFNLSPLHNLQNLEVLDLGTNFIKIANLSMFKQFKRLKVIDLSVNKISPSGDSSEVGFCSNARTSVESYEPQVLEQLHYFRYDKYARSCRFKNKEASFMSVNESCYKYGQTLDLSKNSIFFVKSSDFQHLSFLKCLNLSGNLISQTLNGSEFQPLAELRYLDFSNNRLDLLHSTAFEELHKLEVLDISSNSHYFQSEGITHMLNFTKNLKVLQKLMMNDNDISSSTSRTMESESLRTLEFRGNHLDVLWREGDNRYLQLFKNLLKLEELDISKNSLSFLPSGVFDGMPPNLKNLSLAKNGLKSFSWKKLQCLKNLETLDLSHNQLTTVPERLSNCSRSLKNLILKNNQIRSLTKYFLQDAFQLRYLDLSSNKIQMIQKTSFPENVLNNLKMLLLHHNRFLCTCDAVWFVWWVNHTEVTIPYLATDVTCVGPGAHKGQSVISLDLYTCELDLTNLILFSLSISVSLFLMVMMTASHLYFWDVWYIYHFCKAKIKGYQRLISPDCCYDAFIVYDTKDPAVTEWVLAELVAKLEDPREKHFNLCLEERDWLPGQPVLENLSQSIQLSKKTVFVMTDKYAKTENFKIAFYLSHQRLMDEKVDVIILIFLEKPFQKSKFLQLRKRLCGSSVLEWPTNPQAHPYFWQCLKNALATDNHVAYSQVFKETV
Sequence of human TLR9 (Q9NR96 26-1032): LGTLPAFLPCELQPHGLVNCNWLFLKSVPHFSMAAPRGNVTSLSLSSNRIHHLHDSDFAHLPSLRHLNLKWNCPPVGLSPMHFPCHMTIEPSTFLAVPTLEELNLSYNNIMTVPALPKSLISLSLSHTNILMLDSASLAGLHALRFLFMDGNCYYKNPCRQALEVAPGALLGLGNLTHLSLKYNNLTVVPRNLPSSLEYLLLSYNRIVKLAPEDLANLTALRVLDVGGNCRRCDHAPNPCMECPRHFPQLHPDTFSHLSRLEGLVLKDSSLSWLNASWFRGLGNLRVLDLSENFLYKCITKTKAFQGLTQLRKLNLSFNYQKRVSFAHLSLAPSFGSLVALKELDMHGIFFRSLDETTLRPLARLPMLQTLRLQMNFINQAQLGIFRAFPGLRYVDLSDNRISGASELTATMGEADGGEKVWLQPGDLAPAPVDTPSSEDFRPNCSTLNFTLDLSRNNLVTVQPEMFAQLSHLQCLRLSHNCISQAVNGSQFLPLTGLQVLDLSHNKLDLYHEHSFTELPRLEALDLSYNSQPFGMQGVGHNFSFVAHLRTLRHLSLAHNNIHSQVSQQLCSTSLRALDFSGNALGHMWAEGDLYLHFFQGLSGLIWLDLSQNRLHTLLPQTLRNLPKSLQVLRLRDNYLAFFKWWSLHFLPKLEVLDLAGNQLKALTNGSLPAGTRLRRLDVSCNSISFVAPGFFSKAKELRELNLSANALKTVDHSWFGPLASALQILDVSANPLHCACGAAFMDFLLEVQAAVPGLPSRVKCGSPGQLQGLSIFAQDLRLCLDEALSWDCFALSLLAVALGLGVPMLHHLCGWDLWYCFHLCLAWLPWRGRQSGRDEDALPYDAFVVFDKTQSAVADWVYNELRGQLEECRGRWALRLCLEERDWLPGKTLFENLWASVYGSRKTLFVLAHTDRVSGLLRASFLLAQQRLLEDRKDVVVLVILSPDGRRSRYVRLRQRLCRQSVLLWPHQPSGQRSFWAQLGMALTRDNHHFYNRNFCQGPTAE
Sequence of human TLR8 (Q9NR97 27-1041): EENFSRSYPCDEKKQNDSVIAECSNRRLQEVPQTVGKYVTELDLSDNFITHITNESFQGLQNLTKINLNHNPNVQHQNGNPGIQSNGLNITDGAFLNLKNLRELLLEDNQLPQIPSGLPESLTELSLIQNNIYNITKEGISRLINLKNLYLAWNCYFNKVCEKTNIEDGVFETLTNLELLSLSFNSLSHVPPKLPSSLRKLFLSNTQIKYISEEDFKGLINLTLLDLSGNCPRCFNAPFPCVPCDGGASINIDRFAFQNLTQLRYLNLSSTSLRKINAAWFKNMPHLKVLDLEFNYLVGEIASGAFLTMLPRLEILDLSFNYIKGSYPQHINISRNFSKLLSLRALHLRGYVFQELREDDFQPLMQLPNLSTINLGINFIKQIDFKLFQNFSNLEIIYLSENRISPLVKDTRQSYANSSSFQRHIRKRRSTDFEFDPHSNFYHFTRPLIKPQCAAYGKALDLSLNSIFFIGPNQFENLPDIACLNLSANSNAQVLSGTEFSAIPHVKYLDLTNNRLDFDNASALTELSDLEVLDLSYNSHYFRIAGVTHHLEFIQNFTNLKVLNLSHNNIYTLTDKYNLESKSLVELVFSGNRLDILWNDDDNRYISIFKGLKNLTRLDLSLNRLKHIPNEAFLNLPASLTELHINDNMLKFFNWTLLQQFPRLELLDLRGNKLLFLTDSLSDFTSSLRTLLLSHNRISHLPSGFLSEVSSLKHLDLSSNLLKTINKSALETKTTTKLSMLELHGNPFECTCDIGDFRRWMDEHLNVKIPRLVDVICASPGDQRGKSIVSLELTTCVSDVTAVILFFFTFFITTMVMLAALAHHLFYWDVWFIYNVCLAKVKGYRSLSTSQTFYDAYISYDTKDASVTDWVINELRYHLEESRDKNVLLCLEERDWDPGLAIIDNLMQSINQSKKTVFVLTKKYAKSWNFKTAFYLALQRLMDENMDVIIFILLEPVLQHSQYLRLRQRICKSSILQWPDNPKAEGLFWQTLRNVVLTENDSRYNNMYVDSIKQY

| SMILES | IC50 (human TLR9; [1]) | IC50 (human TLR7) | IC50 (human TLR8; [2]) | IC50 (human TLR9; [3]) | IC50 (human TLR8; [4]) |
| --- | --- | --- | --- | --- | --- |
| Cc1cc(-c2[nH]c3ccc(C4CCN(CC(=O)N(C(C)C)C(C)C)CC4)cc3c2C(C)C)cc(C)n1 [Example 253, 2-(4-(2-(2,6-dimethylpyridin-4-yl)-3-isopropyl-1H-indol-5-yl)piperidin-1-yl)-N,N-diisopropylacetamide] | 1340 nM | 19.7 nM | 37.1 nM |  |  |
| Cc1cc(-c2[nH]c3ccc(C4CCN(CC(=O)NCC5(C)CC5)CC4)cc3c2C(C)C)cc(C)n1 [Example 255, 2-(4-(2-(2,6-dimethylpyridin-4-yl)-3-isopropyl-1H-indol-5-yl)piperidin-1-yl)-N-((1-methylcyclopropyl)methyl)acetamide] | 654 nM | 6.9 nM | 20.4 nM |  |  |
| Cc1cc(-c2[nH]c3ccc(C4CCN(CC(=O)N5CC6(COC6)C5)CC4)cc3c2C(C)C)cc(C)n1 [Example 256, 2-(4-(2-(2,6-dimethylpyridin-4-yl)-3-isopropyl-1H-indol-5-yl)piperidin-1-yl)-1-(2-oxa-6-azaspiro[3.3]heptan-6-yl)ethan-1-one] | 403 nM | 4.4 nM | 9.2 nM |  |  |
| Cc1cc(-c2[nH]c3ccc(C4CCN(CC(=O)N5CCC(F)(F)CC5)CC4)cc3c2C(C)C)cc(C)n1 [Example 257, 1-(4,4-difluoropiperidin-1-yl)-2-(4-(2-(2,6-dimethylpyridin-4-yl)-3-isopropyl-1H-indol-5-yl)piperidin-1-yl)ethan-1-one] | 607 nM | 9.8 nM | 13.8 nM |  |  |
| Cc1cc(-c2[nH]c3ccc(C4CCN(CC(=O)N5CCCC(F)C5)CC4)cc3c2C(C)C)cc(C)n1 (stereo not drawn) [Example 258, 2-(4-(2-(2,6-dimethylpyridin-4-yl)-3-isopropyl-1H-indol-5-yl)piperidin-1-yl)-1-(3-fluoropiperidin-1-yl)ethan-1-one] | 903 nM | 7.6 nM | 15.6 nM |  |  |
| Cc1cc(-c2[nH]c3ccc(C4CCN(CC(=O)N5CCCC5C)CC4)cc3c2C(C)C)cc(C)n1 (stereo not drawn) [Example 259, 2-(4-(2-(2,6-dimethylpyridin-4-yl)-3-isopropyl-1H-indol-5-yl)piperidin-1-yl)-1-(2-methylpyrrolidin-1-yl)ethan-1-one] |  | 4.5 nM |  | 483 nM | 12.2 nM |
| Cc1cc(-c2[nH]c3ccc(C4CCN(CC(=O)N5C(C)CCC5C)CC4)cc3c2C(C)C)cc(C)n1 (stereo not drawn) [Example 261, 2-(4-(2-(2,6-dimethylpyridin-4-yl)-3-isopropyl-1H-indol-5-yl)piperidin-1-yl)-1-(2,5-dimethylpyrrolidin-1-yl)ethan-1-one] | 451 nM | 5.7 nM | 22.3 nM |  |  |
| COC[C@@H]1CCCN1C(=O)CN1CCC(c2ccc3[nH]c(-c4cc(C)nc(C)c4)c(C(C)C)c3c2)CC1 [Example 263, (S)-2-(4-(2-(2,6-dimethylpyridin-4-yl)-3-isopropyl-1H-indol-5-yl)piperidin-1-yl)-1-(2-(methoxymethyl)pyrrolidin-1-yl)ethan-1-one] | 279 nM | 3.7 nM | 13.6 nM |  |  |
| Cc1cc(-c2[nH]c3ccc(C4CCN(CC(=O)NCC5CCCO5)CC4)cc3c2C(C)C)cc(C)n1 (stereo not drawn) [Example 266, 2-(4-(2-(2,6-dimethylpyridin-4-yl)-3-isopropyl-1H-indol-5-yl)piperidin-1-yl)-N-((tetrahydrofuran-2-yl)methyl)acetamide] | 522 nM | 3.2 nM | 10.8 nM |  |  |
| Cc1cc(-c2[nH]c3ccc(C4CCN(CC(=O)N5CCC(C)CC5)CC4)cc3c2C(C)C)cc(C)n1 [Example 269, 2-(4-(2-(2,6-dimethylpyridin-4-yl)-3-isopropyl-1H-indol-5-yl)piperidin-1-yl)-1-(4-methylpiperidin-1-yl)ethan-1-one] | 227 nM | 3.7 nM | 19.8 nM |  |  |
| Cc1cc(-c2[nH]c3ccc(C4CCN(CC(=O)N5CCCCC5C)CC4)cc3c2C(C)C)cc(C)n1 (stereo not drawn) [Example 270, 2-(4-(2-(2,6-dimethylpyridin-4-yl)-3-isopropyl-1H-indol-5-yl)piperidin-1-yl)-1-(2-methylpiperidin-1-yl)ethan-1-one] | 192 nM | 6.4 nM | 15.5 nM |  |  |
| Cc1cc(-c2[nH]c3ccc(C4CCN(CC(=O)N[C@H](CO)CC(C)C)CC4)cc3c2C(C)C)cc(C)n1 [Example 276, (S)-2-(4-(2-(2,6-dimethylpyridin-4-yl)-3-isopropyl-1H-indol-5-yl)piperidin-1-yl)-N-(1-hydroxy-4-methylpentan-2-yl)acetamide] | 853 nM | 6.3 nM | 18.6 nM |  |  |
| Cc1cc(-c2[nH]c3ccc(C4CCN(CC(=O)N(C)C5CCCCC5)CC4)cc3c2C(C)C)cc(C)n1 [Example 278, N-cyclohexyl-2-(4-(2-(2,6-dimethylpyridin-4-yl)-3-isopropyl-1H-indol-5-yl)piperidin-1-yl)-N-methylacetamide] | 288 nM | 6.1 nM | 28.5 nM |  |  |
| Cc1cc(-c2[nH]c3ccc(C4CCN(CC(=O)NC5CCOCC5)CC4)cc3c2C(C)C)cc(C)n1 [Example 280, 2-(4-(2-(2,6-dimethylpyridin-4-yl)-3-isopropyl-1H-indol-5-yl)piperidin-1-yl)-N-(tetrahydro-2H-pyran-4-yl)acetamide] | 350 nM | 3 nM | 6.1 nM |  |  |

The remaining compounds from weak to strong by IC50 (human TLR7), led by results:

| IC50 (human TLR9; [1]) | IC50 (human TLR7) | IC50 (human TLR8; [2]) | IC50 (human TLR9; [3]) | IC50 (human TLR8; [4]) | SMILES |
| --- | --- | --- | --- | --- | --- |
| 416 nM | 3 nM | 7.2 nM |  |  | Cc1cc(-c2[nH]c3ccc(C4CCN(CC(=O)NCC(C)(C)O)CC4)cc3c2C(C)C)cc(C)n1 [Example 268, 2-(4-(2-(2,6-dimethylpyridin-4-yl)-3-isopropyl-1H-indol-5-yl)piperidin-1-yl)-N-(2-hydroxy-2-methylpropyl)acetamide] |
| 348 nM | 2.6 nM | 11.1 nM |  |  | Cc1cc(-c2[nH]c3ccc(C4CCN(CC(=O)NC5(C)CCOCC5)CC4)cc3c2C(C)C)cc(C)n1 [Example 267, 2-(4-(2-(2,6-dimethylpyridin-4-yl)-3-isopropyl-1H-indol-5-yl)piperidin-1-yl)-N-(4-methyltetrahydro-2H-pyran-4-yl)acetamide] |
| 512 nM | 2.3 nM | 11 nM |  |  | Cc1cc(-c2[nH]c3ccc(C4CCN(CC(=O)NC5CCCOC5)CC4)cc3c2C(C)C)cc(C)n1 (stereo not drawn) [Example 279, 2-(4-(2-(2,6-dimethylpyridin-4-yl)-3-isopropyl-1H-indol-5-yl)piperidin-1-yl)-N-(tetrahydro-2H-pyran-3-yl)acetamide] |
| 715 nM | 2 nM | 6 nM |  |  | Cc1cc(-c2[nH]c3ccc(C4CCN(CC(=O)NCCC(C)O)CC4)cc3c2C(C)C)cc(C)n1 (stereo not drawn) [Example 262, 2-(4-(2-(2,6-dimethylpyridin-4-yl)-3-isopropyl-1H-indol-5-yl)piperidin-1-yl)-N-(3-hydroxybutyl)acetamide] |
| 201 nM | 2 nM | 6.6 nM |  |  | Cc1cc(-c2[nH]c3ccc(C4CCN(CC(=O)N5CCCC(O)C5)CC4)cc3c2C(C)C)cc(C)n1 (stereo not drawn) [Example 277, 2-(4-(2-(2,6-dimethylpyridin-4-yl)-3-isopropyl-1H-indol-5-yl)piperidin-1-yl)-1-(3-hydroxypiperidin-1-yl)ethan-1-one] |
| 261 nM | 1.9 nM | 9.1 nM |  |  | Cc1cc(-c2[nH]c3ccc(C4CCN(CC(=O)N5CCC[C@H]5CO)CC4)cc3c2C(C)C)cc(C)n1 [Example 274, (S)-2-(4-(2-(2,6-dimethylpyridin-4-yl)-3-isopropyl-1H-indol-5-yl)piperidin-1-yl)-1-(2-(hydroxymethyl)pyrrolidin-1-yl)ethan-1-one] |
|  | 1.6 nM |  | 67 nM | 6.8 nM | Cc1cc(-c2[nH]c3ccc(C4CCN(CC(=O)N5CC[C@@H](O)C5)CC4)cc3c2C(C)C)cc(C)n1 [Example 275, (R)-2-(4-(2-(2,6-dimethylpyridin-4-yl)-3-isopropyl-1H-indol-5-yl)piperidin-1-yl)-1-(3-hydroxypyrrolidin-1-yl)ethan-1-one] |
| 379 nM | 1.5 nM | 5.1 nM |  |  | Cc1cc(-c2[nH]c3ccc(C4CCN(CC(=O)NCC(C)O)CC4)cc3c2C(C)C)cc(C)n1 (stereo not drawn) [Example 260, 2-(4-(2-(2,6-dimethylpyridin-4-yl)-3-isopropyl-1H-indol-5-yl)piperidin-1-yl)-N-(2-hydroxypropyl) acetamide] |
| 73 nM | 1.5 nM | 2.8 nM |  |  | COCCN1CCN(C(=O)CN2CCC(c3ccc4[nH]c(-c5cc(C)nc(C)c5)c(C(C)C)c4c3)CC2)CC1 [Example 265, 2-(4-(2-(2,6-dimethylpyridin-4-yl)-3-isopropyl-1H-indol-5-yl)piperidin-1-yl)-1-(4-(2-methoxyethyl)piperazin-1-yl)ethan-1-one] |
|  | 1.5 nM |  | 66 nM | 5.4 nM | Cc1cc(-c2[nH]c3ccc(C4CCN(CC(=O)N5CC[C@H](O)C5)CC4)cc3c2C(C)C)cc(C)n1 [Example 273, (S)-2-(4-(2-(2,6-dimethylpyridin-4-yl)-3-isopropyl-1H-indol-5-yl)piperidin-1-yl)-1-(3-hydroxypyrrolidin-1-yl)ethan-1-one] |
| 46 nM | 1.2 nM | 3.1 nM |  |  | Cc1cc(-c2[nH]c3ccc(C4CCN(CC(=O)N5CCNC(=O)C5)CC4)cc3c2C(C)C)cc(C)n1 [Example 272, 4-(2-(4-(2-(2,6-dimethylpyridin-4-yl)-3-isopropyl-1H-indol-5-yl)piperidin-1-yl)acetyl)piperazin-2-one] |
| 129 nM | 1.2 nM | 2 nM |  |  | Cc1cc(-c2[nH]c3ccc(C4CCN(CC(=O)N5CCS(=O)(=O)CC5)CC4)cc3c2C(C)C)cc(C)n1 [Example 281, 2-(4-(2-(2,6-dimethylpyridin-4-yl)-3-isopropyl-1H-indol-5-yl)piperidin-1-yl)-1-(1,1-dioxidothiomorpholino)ethan-1-one] |

Source: US10660877B2 (BRISTOL-MYERS SQUIBB COMPANY, priority 2016, dated 2020)
